Read-outs that look alike come from different tables or passages of the source.
Tests used:
[1] = target: T1, AbCYP82M3 (Atropa belladonna, UniProt A0A3G4RHY7); conditions: 1 mM NADPH, pH 7.0, ionic strength 0.05, 20% glycerol, 30 °C
T1 construct: gene CYP82M3

[2] = target: T2, AbPYKS (Atropa belladonna, UniProt A0A3G4RHW3); conditions: substrate inhibition constant, 25 mM potassium phosphate pH 8.0, 30 °C
T2 construct: gene OGAS

[3] = target: T2, AbPYKS; conditions: apparent; 0.1 mM malonyl-CoA, 25 mM potassium phosphate pH 8.0, 30 °C
[4] = system: CC(C)(COP(=O)(O)OP(=O)(O)OC[C@H]1O[C@@H](n2cnc3c(N)ncnc32)[C@H](O)[C@@H]1OP(=O)(O)O)[C@@H](O)C(=O)NCCC(=O)NCCSC(=O)CC(=O)O; assay: purified protein; conditions: apparent, 0.05 mM N-methyl-Δ^1-pyrrolinium, 25 mM potassium phosphate pH 8.0, 30 °C

T2 sequence (A0A3G4RHW3 1-392 limits assumed): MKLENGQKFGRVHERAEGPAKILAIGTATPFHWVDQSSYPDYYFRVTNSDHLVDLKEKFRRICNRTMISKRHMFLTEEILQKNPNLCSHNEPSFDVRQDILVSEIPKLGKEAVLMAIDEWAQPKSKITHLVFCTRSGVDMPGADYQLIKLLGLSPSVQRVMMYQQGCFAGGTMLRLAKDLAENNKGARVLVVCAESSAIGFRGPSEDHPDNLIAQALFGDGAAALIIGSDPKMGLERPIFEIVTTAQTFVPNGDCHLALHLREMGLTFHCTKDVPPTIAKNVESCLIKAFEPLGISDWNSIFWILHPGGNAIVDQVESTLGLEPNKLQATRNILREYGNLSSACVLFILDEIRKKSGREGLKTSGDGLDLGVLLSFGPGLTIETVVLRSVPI
T1 sequence (A0A3G4RHY7 1-519): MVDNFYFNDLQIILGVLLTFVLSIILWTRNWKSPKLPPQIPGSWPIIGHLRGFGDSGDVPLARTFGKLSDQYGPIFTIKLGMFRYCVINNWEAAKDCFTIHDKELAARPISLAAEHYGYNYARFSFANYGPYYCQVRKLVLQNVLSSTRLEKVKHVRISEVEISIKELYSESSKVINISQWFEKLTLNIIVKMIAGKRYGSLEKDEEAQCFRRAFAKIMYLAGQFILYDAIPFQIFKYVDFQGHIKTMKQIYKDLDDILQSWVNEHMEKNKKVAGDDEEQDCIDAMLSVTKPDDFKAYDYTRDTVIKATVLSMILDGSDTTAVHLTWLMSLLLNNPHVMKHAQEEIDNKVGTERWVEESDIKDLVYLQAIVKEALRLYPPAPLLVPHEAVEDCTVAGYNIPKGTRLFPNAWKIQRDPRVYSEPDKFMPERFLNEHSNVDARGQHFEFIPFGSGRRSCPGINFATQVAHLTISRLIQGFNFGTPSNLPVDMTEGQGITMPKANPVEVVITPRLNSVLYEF

## CN1CCCC1CC(=O)CC(=O)O (racemic) [compound 5, 4-(1-methyl-2-pyrrolidinyl)-3-oxobutanoic acid]
[1]
  Km: 631 ± 26 µM

## CC(C)(COP(=O)(O)OP(=O)(O)OC[C@H]1O[C@@H](n2cnc3c(N)ncnc32)[C@H](O)[C@@H]1OP(=O)(O)O)[C@@H](O)C(=O)NCCC(=O)NCCSC(=O)CC(=O)O [Malonyl-CoA]
[2]; 0.05 mM N-methyl-Δ^1-pyrrolinium
  K i /: 280 ± 0.9 µM

## C[N+]1=CCCC1 [compound 4, N-methyl-Δ^1-pyrrolinium]
[3]
  Km: 10 ± 0.6 µM
[2]; 0.1 mM malonyl-CoA
  K i /: 103 ± 16 µM

## AbPYKS (Atropa belladonna)
[4]
  Km: 12 ± 1 µM
  Vmax: 13.8 µmol/min/mg
  kcat: 10 ± 0.1 s⁻¹
  kcat/Km: 848000 ± 90000 M⁻¹ s⁻¹
